Read-outs that look alike come from different tables or passages of the source.
Target: T1, pea PBGS (Pisum sativum, UniProt P30124)
T1 sequence (P30124 69-398 limits assumed): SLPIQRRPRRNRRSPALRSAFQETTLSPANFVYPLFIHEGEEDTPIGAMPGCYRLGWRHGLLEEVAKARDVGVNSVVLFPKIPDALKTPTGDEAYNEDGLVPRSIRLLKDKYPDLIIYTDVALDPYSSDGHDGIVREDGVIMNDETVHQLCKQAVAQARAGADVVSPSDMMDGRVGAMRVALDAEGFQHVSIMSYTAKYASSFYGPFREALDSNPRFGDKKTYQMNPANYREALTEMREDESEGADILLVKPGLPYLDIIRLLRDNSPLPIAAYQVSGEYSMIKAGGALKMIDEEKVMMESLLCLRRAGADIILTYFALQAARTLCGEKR
Test: pea PBGS activity assay (inhibition, protein concentration dependent specific activity)
Format: biochemical
Set-up: made in house
Experimental: FIG. 32(a) The inhibitor morphlock-1 is illustrated as posed by Glide. The subunits A, B, and E are illustrated as ribbon diagram. Morphlock-1 is shown with carbon atoms and illustrated as ball and stick. FIG. 32(b) The chemical structure of morphlock-1. […] Pea PBGS was incubated with various concentrations of morphlock-1 (in a DMSO solution). Each concentration of morphlock-1 with a fixed amount of DMSO was incubated with protein for 30 minutes at 37° C. prior to resolution on 12.5% polyacrylamide native PhastGels. […] (d) The protein concentration dependence of pea PBGS specific activity is illustrated. […] The final concentration of morphlock-1 in the inhibited assay was 5 μM, and the concentration of PBGS in the inhibited and control assays ranged from 0.05-50 μg/mL (0.014-1.4 μM).
The proteins were incubated in the presence of 10× inhibitor for 30 minutes at 37° C. prior to assay. The concentrations on the X-axis represent the final concentration of morphlock-1 in the assay. FIG. 33(b). […] IC50 values were determined as per part (a) using the noted concentrations of pea PBGS. (c) Native PAGE evaluation of the effect of morphlock-1 on the quaternary structure equilibria of PBGS (˜1 mg/ml) from D. melanogaster, P. aeruginosa, V. cholerae, and H. sapiens. Note that the charge/mass ratio is not the same for PBGS from different species.
The dose response curve for morphlock-1 inhibition of pea PBGS (FIG. 37a) was initially carried out at 0.03 μM pea PBGS, where the hexamer is a significant component of the equilibrium mixture; the morphlock-1 concentration was varied from 0.1 μM to 0.1 mM.
The dose response curve for morphlock-1 inhibition of pea PBGS (FIG. 33(a)) was initially carried out at 0.03 μM pea PBGS, where the hexamer is a significant component of the equilibrium, in order to optimize the observed inhibition; the morphlock-1 concentration was varied from 0.1 μM to 0.1 mM.

SMILES: O=C1Nc2ccc(S(=O)(=O)NCC(O)c3ccc([N+](=O)[O-])cc3)c3cccc1c23 (stereo not drawn) [morphlock-1, 2-oxo-1,2-dihydro-benzo(cd)indole-6-sulfonic acid[2-hydroxy-2-(4-nitro-phenyl)-ethyl]-amide]
- IC50 (0.03 μM pea PBGS, morphlock-1 0.1 μM to 0.1 mM, 30 minutes at 37° C. prior to assay, read-out: apparent IC50 of morphlock-1 inhibition of pea PBGS): 1.2 µM
- IC50 (low protein concentration, activity assays, read-out: IC50 by kinetic analysis / activity assays (and native PAGE with more sensitive staining)): ~1 µM
- K(0.5) of the protein concentration dependent specific activity in the presence of morphlock-1 (morphlock-1 set at 5 μM, K(0.5) without morphlock-1 0.064 μM): 0.134 µM

— patent US8153410B2, “Alternate morpheein forms of allosteric proteins as a target for the development of bioactive molecules” (Fox Chase Cancer Center, priority 2003, dated 2012)
